According to US20130109581A1, “POSITIVELY CHARGED SPECIES AS BINDING REAGENTS IN THE SEPARATION OF PROTEIN AGGREGATES FROM MONOMERS” (priority 2009, published 2013):
Where “and” joins values, the source holds several entries; their conditions need not be identical. Equal values may be shown once. Entries after “also recorded” stand apart in the source; their conditions may differ.

What was measured:
Aβ(1-42) aggregates = molecular target: T1, Aβ(1-42) aggregates (Homo sapiens, UniProt P05067); assay type: binding
T1 construct: For Aβ(1-42), 10 nL of 10% brain homogenate was added to each well; from tissue; host or cells: Alzheimer's disease patient brain homogenate
T1 sequence (P05067 672-713 limits assumed): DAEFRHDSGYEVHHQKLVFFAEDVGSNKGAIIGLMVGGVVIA

tau aggregates = assay type: binding, human
Abeta 1-42 globulomer = molecular target: T2, Abeta 1-42 globulomer (Homo sapiens, UniProt P05067); assay: Globulomer capture assay in CSF (Example 6); assay type: binding
T2 construct: beta amyloid (1-42) was monomerized with incubation in hexafluoroisopropanol
T2 sequence (P05067 672-713 limits assumed): as above
Description: A series of new potential aggregate-specific binding reagents were designed as shown below and conjugated onto magnetic Dynal M270 beads as described in Example 2. Typically 7-12 nmol of ligand (each candidate aggregate-specific binding reagent) was coated onto 1 mg of beads.
Aliquots of the beads (typically 3 ul) were added to wells of a 96 well plate, followed by sample (with or without Abeta 1-42 globulomer (an Abeta42 oligomer model) spiked in 80:20 CSF:TBSTT, typically 125 ul). The plate was sealed and incubated for 1 hour at 37° C. with shaking. The plate was washed with aqueous solutions of detergent (typically polyethylene glycol sorbitan monolaurate and n-tetradecyl-N,N-dimethyl-3-ammonio-1-propanesulfonate) to remove ubound material and the residual buffer removed. A denaturing solution (typically 0.1-0.15 N NaOH) was added to each well and the plate heated to 80° C. for 30 min with shaking. After cooling the plate to room temperature, a neutralizing buffer (typically 0.12-0.18 M NaH2PO3 in 0.4% TWEEN20,) was added and the plate was shaken briefly at room temperature. The bead eluate was analyzed using either an Aβ42-specific ELISA or the MSD® 96-Well MULTI-SPOT® Human/Rodent [4G8] Abeta Triplex Ultra-Sensitive Assay from Meso Scale Discovery (Gaithersburg, Md.). For the Aβ42-specific assay, the samples were eluted from the beads and a detection antibody (4G8 HRP) was added to a plate bearing the Aβ42-specific antibody 12F4. The plate was incubated for 1 hour, washed, the substrate was added (SuperSignal West Femto Maximum Sensitivity Substrate from Thermo Fisher, Rockville, Md.), and the luminescence was measured. The MSD plate assay was performed in a similar fashion, according to the manufacturer's protocol.
In this experiment the preferred number of charges within a given scaffold was identified. An Ala/Lys peptide framework was utilized, where the inclusion of each Lys residue increases the peptides' net charge by +1. Six hexapeptides with increasing charge (+1→+6), AAAKAA, AAKKAA, AAKKKA, AKKKKA, AKKKKK, and KKKKKK, were prepared and conjugated on the beads. The ability of these beads to capture Abeta 1-42 globulomer spiked at 1 ng/mL into CSF was tested, and the result is shown in FIG. 25. The globulomer capture level (“42 1 ng/ml” or the closed bars) was compared to the background signal of Abeta 1-42 detected in the unspiked CSF (“42 0 ng/ml”) and the background signal of Abeta 1-40 detected in unspiked CSF (“40 0 ng/ml”) or CSF spiked with AB42 oligomers “40 1 ng/ml”. The charge density, as conjugated to the magnetic beads, of each reagent evaluated in this experiment is shown below in Table 8.

Aβ42 Monomer = molecular target: T3, Aβ42 Monomer (Homo sapiens, UniProt P05067); assay: Misfolded Protein Assay, Limit of Detection in CSF: monomer; assay type: binding; conditions: spiked into CSF; LoD = 2× over background
T3 construct: The Ab42 aggregates were prepared as previously described
T3 sequence (P05067 672-713 limits assumed): as above
Description: (§1) The Ab42 aggregates were prepared as previously described: fibrils were prepared per Stine et al (JBC 2003, 278, p11612), globulomers were prepared per Barghorn et al (J Neurology 2005 95 p834), ADDLs were prepared per Lambert et al (PNAS 1998, 95 p6448), and ASPDs were prepared per Noguchi et al (JBC 2009 284 p32895). Normal CSF was pooled from clinically characterized non-demented patient CSF samples. AD CSF was pooled from clinically-characterized AD patient samples. Alzheimer's Disease Brain Homogenate (ADBH) was prepared by sonication of clinically diagnosed AD patient brain samples in 0.2M.sucrose (1:10 w/v).
(§2) For the capture assay (Misfolded Protein Assay), aliquots of the beads (30 ul) were added to wells of a 96 well plate, followed by 125 ul of sample in 80:20 CSF:TBSTT. The plate was sealed and incubated for 1 h at 37 C with shaking. The plate was washed with TBST and the residual buffer removed. A denaturing solution (0.1 N NaOH) was added to each well and the plate heated to 80 C. for 30 min with shaking. After cooling the plate to RT, a neutralizing buffer (0.12 M NaH2PO3-0.4% TW20,) was added and the plate shaken briefly at RT. The assay was analyzed using the triplex Mesoscale Discovery ELISA kit for Aβ. The Aβ in the samples eluted from the beads were detected per the manufacturer's protocol. […]

Aβ42 Fibrils = molecular target: T4, Aβ42 Fibrils (Homo sapiens, UniProt P05067); assay: Misfolded Protein Assay, LoD and capture in CSF: fibrils; assay type: binding; conditions: for LoD: spiked into CSF
T4 construct: The Ab42 aggregates were prepared as previously described
T4 sequence (P05067 672-713 limits assumed): as above
Description: as §1
For the capture assay (Misfolded Protein Assay), aliquots of the beads (30 ul) were added to wells of a 96 well plate, followed by 125 ul of sample in 80:20 CSF:TBSTT. The plate was sealed and incubated for 1 h at 37 C with shaking. The plate was washed with TBST and the residual buffer removed. A denaturing solution (0.1 N NaOH) was added to each well and the plate heated to 80 C. for 30 min with shaking. After cooling the plate to RT, a neutralizing buffer (0.12 M NaH2PO3-0.4% TW20,) was added and the plate shaken briefly at RT. The assay was analyzed using the triplex Mesoscale Discovery ELISA kit for Aβ. The Aβ in the samples eluted from the beads were detected per the manufacturer's protocol.
For the Limit of Detection (LoD) studies, serial dilutions of each aggregate were spiked into CSF and were assayed per the protocol described above. The LoD was defined as 2× over background levels.
This pattern minors the capture selectivity observed when these species are tested with 3 ul of PSR1 beads and 1 ng/mL of aggregate.

[1] = system: Alzheimer's Disease Brain Homogenate (ADBH) Aβ aggregates; assay: Misfolded Protein Assay, LoD in CSF: ADBH; assay type: binding, human; conditions: spiked into CSF
Description: as §1, §2

[2] = molecular target: T5, oligomeric beta amyloid 1-42 (globulomer) (Homo sapiens, UniProt P05067); assay: Misfolded Protein Assay: capture of globulomer spiked into CSF (Example 2); assay type: binding; conditions: conjugated to cellulose membrane; loading approximately 100× higher than on beads
T5 construct: beta amyloid (1-42) was monomerized with incubation in hexafluoroisopropanol
T5 sequence (P05067 672-713 limits assumed): as above

What does the source list for Nab-Nab-Nab-Nbn-Nab-Nbn [PSR1]?
distinguishing control and AD brain homogenates, Abeta (1-42) detected (Aβ(1-42) aggregates): clearly distinguished between control and either vCJD or AD samples; distinguishing control and AD brain homogenates, Tau detected (tau aggregates): clearly distinguished between control and either vCJD or AD samples; total Tau signal, AD vs normal brain homogenate (tau aggregates): higher signals in the AD samples relative to the normal brain homogenates; also recorded: highest signal; 42:40 (signal:noise ratio) (Abeta 1-42 globulomer; 1 ng/ml average reading, ratio of 42 to 40): 4.1; 42, 1 ng/ml average reading (Abeta 1-42 globulomer; Abeta 1-42 globulomer spiked at 1 ng/mL into CSF): 970.5 RLUs; LoD (Aβ42 Monomer): ~1000 pg/mL; capture of Fibril (Aβ42 Fibrils; 3 ul of beads and 1 ng/mL of aggregate): 3636; LoD (Aβ42 Fibrils): <2 amol; LoD (Aβ42 Fibrils; LoD = 2× over background): ~50 pg/mL and 50 pg/mL; LoD [1]: <0.2 amol; ability to bind preferentially to oligomers in solution [2]: continued to increase the ability of PSR1 to bind preferentially to oligomers in solution
